We go through 3 compounds from US20070219266A1, “N-Acylated-3-(Benzoyl)-Pyrrolidines as 11-Beta-HSD1 Inhibitors Useful for the Treatment of Metabolic Disorders” (priority 2003, published 2007).

For this assay, the target named is T1, human 11βHSD1 (Homo sapiens, UniProt P28845).
T1 construct: stably transfected with a construct containing full-length human 11βHSD1 enzyme (in pCMVHyg); expressed in transfected cells
T1 sequence (P28845 whole entry): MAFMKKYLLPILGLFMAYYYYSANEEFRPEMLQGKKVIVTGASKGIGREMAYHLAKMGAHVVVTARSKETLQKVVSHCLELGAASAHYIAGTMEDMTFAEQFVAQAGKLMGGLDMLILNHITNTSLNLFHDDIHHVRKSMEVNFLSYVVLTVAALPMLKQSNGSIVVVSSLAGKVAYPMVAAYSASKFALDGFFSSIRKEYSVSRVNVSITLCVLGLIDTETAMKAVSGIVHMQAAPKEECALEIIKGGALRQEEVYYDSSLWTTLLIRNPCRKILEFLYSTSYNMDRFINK
Put plainly: HeLa GRE4-βGal/11βHSD1 cell reporter assay (cortisone to cortisol conversion, β-galactosidase readout). The class given is cell-based. To be noted: HeLa GRE4-βGal/11βHSD1 cells, cortisone 1 μM, overnight incubation, absorbance at 570 nm. The source says: HeLa cells (human cervical carcinoma derived cells) were stably transfected with a construct containing four copies of the glucocorticoid response element (GRE) linked to a beta-galactosidase reporter gene (3 kb lac Z gene derived from pSV-B-galactosidase). These cells were then further stably transfected with a construct containing full-length human 11βHSD1 enzyme (in pCMVHyg) to create GRE4-βGal/11βHSD1 cells. The principal of the assay is as follows. Cortisone is freely taken up by the cells and is converted to cortisol by 11βHSD1 oxo-reductase activity and cortisol (but not cortisone) binds to and activates the glucocorticoid receptor. Activated glucocorticoid receptor then binds to the GRE and initiates transcription and translation of β-galactosidase. Enzyme activity can then be assayed with high sensitivity by colourimetric assay.
Cells were routinely cultured in DMEM (Invitrogen, Paisley, Renfrewshire, UK) containing 10% foetal calf serum (LabTech), 1% glutamine (Invitrogen), 1% penicillin & streptomycin (Invitrogen), 0.5 mg/ml G418 (Invitrogen) & 0.5 mg/ml hygromycin (Boehringer). Assay media was phenol red free-DMEM containing 1% glutamine, 1% penicillin & streptomycin.
Compounds (1 mM) to be tested were dissolved in dimethyl sulphoxide (DMSO) and serially diluted into assay media containing […]. […]
A cocktail (25 μl) consisting of 10× Z-buffer (600 mM Na2HPO4, 400 mM NaH2PO4.2H2O, 100 mM KCl, 10 mM MgSO4.7H2O, 500 mM β-mercaptoethanol, pH 7.0), SDS (0.2%), chlorophenol red-β-D-galactopyranoside (5 mM, Roche Diagnostics) was added per well and plates incubated at 37° C. for 3-4 hours. β-Galactosidase activity was indicated by a yellow to red colour change (absorbance at 570 nm) measured using a Tecan Spectrafluor Ultra.
The calculation of median inhibitory concentration (IC50) values for the inhibitors was performed using Origin 6.0 (Microcal Software, Northampton Mass. USA). Dose response curves for each inhibitor were plotted as OD units at each inhibitor concentration with relation to a maximum signal (cortisone, no compound) and IC50 values calculated. […]
For `O=C(c1ccc(F)cc1)C1CCN(C(=O)c2ccccc2Cl)C1` (stereo not drawn) [Example 7], the half-maximal inhibitory concentration (IC50) (commonly the concentration that inhibits the measured activity by half) was 70 nM.

Compound `O=C(c1ccc(F)cc1)C1CCN(S(=O)(=O)c2ccc(F)cc2)C1` (stereo not drawn) [Example 18] came in with an IC50 of 447 nM.

As to `O=C(c1ccc(F)cc1)C1CCN(C(=O)c2ccc(Cl)cc2)C1` (stereo not drawn) [Example 5], the midpoint of inhibition, the IC50, lay at 75 nM.
